Data: patent publication US8436159B2, “Glyphosate resistant class I 5-endolpyruvylshikimate-3-phosphate synthase (EPSPS)” (Monsanto Technology LLC, priority 2003, dated 2013)

Target: T1, maize (Zea mays) class I EPSPS, wild type (WT), pMON70461, DNA SEQ ID NO:3 (Zea mays, UniProt O24566)
T1 construct: pMON70461
T1 sequence (O24566 with tags, fused parts or gaps): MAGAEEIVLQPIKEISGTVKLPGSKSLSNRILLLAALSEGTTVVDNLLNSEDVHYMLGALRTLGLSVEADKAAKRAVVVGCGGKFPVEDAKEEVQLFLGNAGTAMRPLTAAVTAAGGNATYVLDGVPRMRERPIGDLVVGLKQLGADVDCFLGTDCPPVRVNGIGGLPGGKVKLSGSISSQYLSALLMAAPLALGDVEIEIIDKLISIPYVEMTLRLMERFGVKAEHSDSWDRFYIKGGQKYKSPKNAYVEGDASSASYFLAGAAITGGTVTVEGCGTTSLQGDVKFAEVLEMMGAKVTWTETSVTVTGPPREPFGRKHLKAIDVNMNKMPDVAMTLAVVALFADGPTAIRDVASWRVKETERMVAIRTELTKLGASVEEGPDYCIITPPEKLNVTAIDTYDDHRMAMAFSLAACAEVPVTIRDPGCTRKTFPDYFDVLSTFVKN
Assay: EPSPS steady-state kinetics, wild-type maize EPSPS
Assay type: biochemical
Method: The wild type and variant EPSPS coding sequences were cloned into a pET-19b base vector (Novagen, Madison, Wis.). The plant (maize) class I EPSPS variants so created were assigned pMON plasmid numbers (Table 2). The variant EPSPS proteins were purified from the E. coli host using the protocols outlined in the pET system manual, 9th edition (Novagen) or by the following method. A single colony or a few microliters from a glycerol stock was inoculated into 4 mL LB medium containing 0.1 mg/mL carbenicillin antibiotic. The culture was incubated with shaking at 37 C for 4 hours. The cultures were stored at 4° C. overnight. The following morning, 1 mL of the overnight culture was used to inoculate 100 mL of fresh LB medium containing 0.1 mg/mL carbenicillin. The cultures were incubated with shaking at 37 C for 4-5 hours, then the cultures were placed at 4° C. for 5-10 minutes. The cultures were then induced with IPTG (1 mM final concentration) and incubated with shaking at 30 C for 4 hours or 20° C. overnight. The cells were harvested by centrifugation at 7000 rpm for 20 minutes at 4° C. The supernatant was removed and the cells were frozen at −70° C. until further use. The proteins were extracted by resuspending the cell pellet in BugBuster reagent (Novagen) using 5 mL reagent per gram of cells. Benzonase (125 Units) was added to the resuspension and the cell suspension was then incubated on a rotating mixer for 20 minutes at room temperature. The cell debris was removed by centrifugation at 10,000 rpm for 20 minutes at room temperature. The supernatant was passed through a 0.45 μm syringe-end filter and transferred to a fresh tube. A pre-packed columns containing 1.25 mL of His-Bind resin was equilibrated with 10 mL of 5 mM imidazole, 0.5 M NaCl, 20 mM Tris-HCl pH 7.9 (1× Binding Buffer). The column was then loaded with the prepared cell extract. After the cell extract had drained, the column was then washed with 10 mL of 1× Binding Buffer, followed with 10 mL of 60 mM imidazole, 0.5 M NaCl, 20 mM Tris-HCl pH 7.9 (1× Wash Buffer). […]

Which Ki does the source give for `O=C(O)CNCP(=O)(O)O` [glyphosate, N-phosphonomethylglycine] here?
Its Ki is 500 ± 60 nM.
